Experiments:
TBK1 = target: T1, TBK1 (Homo sapiens, UniProt Q9UHD2); experiment: In-vitro TBK1 kinase assay ([γ33]ATP filter-plate); assay type: biochemical; conditions: text bins; read-out: IC50 for inhibition of the kinase activity of TBK1
T1 construct: His-tag; made in house; host or cells: Sf9 insect cells
T1 sequence (Q9UHD2 1-729): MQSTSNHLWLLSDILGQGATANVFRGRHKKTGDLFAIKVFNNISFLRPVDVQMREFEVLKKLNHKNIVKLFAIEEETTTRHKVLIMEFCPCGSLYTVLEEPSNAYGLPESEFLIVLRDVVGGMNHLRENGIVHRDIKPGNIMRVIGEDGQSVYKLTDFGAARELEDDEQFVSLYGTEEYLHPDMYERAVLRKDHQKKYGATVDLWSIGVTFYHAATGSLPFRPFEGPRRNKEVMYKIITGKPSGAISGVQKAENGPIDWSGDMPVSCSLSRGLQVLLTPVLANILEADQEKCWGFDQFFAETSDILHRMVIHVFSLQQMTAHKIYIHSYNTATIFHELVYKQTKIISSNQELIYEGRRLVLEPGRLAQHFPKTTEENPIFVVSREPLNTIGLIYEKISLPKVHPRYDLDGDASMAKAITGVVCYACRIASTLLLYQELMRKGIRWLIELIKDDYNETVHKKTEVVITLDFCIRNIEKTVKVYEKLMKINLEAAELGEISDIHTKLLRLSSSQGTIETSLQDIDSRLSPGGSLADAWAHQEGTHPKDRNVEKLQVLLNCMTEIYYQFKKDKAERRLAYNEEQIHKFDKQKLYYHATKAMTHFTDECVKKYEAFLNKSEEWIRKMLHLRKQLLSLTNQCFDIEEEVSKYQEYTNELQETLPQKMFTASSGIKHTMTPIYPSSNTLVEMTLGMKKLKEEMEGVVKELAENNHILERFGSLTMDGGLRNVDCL
Summary of the method: (§1)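 His-tagged IKKε and TBK1 from Sf9 cells were assayed with myelin basic protein or casein and [γ33]ATP at 2×Km ATP (32 μM for IKKε, 60 μM for TBK1). Enzyme was 0.1 or 0.015 μg/ml for IKKε and 0.1 or 0.02 μg/ml for TBK1 (normal/sensitized). Reactions ran 30-45 min, were filter-captured, scintillation-counted, and normalized to DMSO after background subtraction.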

IKKε = target: T2, IKKε (Homo sapiens, UniProt Q14164); experiment: In-vitro IKKε kinase assay ([γ33]ATP filter-plate); assay type: biochemical; conditions: text bins; read-out: IC50 for inhibition of the kinase activity of IKKε
T2 construct: His-tag; made in house; host or cells: Sf9 insect cells
T2 sequence (Q14164 1-716): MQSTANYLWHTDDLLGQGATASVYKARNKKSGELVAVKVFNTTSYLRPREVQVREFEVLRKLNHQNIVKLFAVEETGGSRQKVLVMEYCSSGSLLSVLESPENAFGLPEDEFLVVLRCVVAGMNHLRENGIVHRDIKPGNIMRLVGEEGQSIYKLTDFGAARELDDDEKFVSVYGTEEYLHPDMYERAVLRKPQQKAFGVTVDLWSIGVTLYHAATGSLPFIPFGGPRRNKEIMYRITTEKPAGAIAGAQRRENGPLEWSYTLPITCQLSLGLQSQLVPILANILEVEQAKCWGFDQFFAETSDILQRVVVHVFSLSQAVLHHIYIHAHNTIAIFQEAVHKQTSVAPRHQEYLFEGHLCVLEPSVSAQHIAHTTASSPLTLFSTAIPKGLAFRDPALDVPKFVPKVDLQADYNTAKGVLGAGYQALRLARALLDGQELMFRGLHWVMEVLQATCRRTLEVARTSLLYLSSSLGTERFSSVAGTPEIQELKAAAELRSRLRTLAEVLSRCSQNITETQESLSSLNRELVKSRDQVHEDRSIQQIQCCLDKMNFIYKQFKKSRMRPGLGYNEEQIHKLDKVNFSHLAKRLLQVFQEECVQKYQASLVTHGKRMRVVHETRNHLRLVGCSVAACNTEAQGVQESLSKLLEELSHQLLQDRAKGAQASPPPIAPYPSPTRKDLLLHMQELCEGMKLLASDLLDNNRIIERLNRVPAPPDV
Summary of the method: as §1

COc1ccc(-c2ccnc(Nc3ccc(N(C)CC(=O)N(C)C)c(OC)c3)n2)cc1C#N [Example 68, N~2~-(4-{[4-(3-Cyano-4-methoxyphenyl)pyrimidin-2-yl]amino}-2-methoxyphenyl)-N,N,N~2~- trimethylglycinamide] showed an IC50 (TBK1) of under 10 nM and an IC50 (IKKε) of under 5 nM.

COc1cc(NC(=O)N2CC[C@H](O)C2)cc(Nc2nccc(-c3ccc(OC)c(C#N)c3)n2)c1 [compound 294, (3S)-N-(3-{[4-(3-Cyano-4-methoxyphenyl)pyrimidin-2-yl]amino}-5-methoxyphenyl)-3-hydroxypyrrolidine-1-carboxamide] showed an IC50 (TBK1) of 10 to 100 nM and an IC50 (IKKε) of 5 to 50 nM.

Compound COc1ccc(-c2ccnc(Nc3cccc(S(N)(=O)=O)c3)n2)cc1C#N [compound 346, 3-{[4-(3-Cyano-4-methoxyphenyl)pyrimidin-2-yl]amino} benzenesulfonamide] has an IC50 (TBK1) of 10 to 100 nM and an IC50 (IKKε) of 5 to 50 nM.

Compound COc1ccc(-c2ccnc(Nc3ccc(S(=O)(=O)NCCCN(C)C)c(OC)c3)n2)cc1C#N [compound 375, 4-{[4-(3-Cyano-4-methoxyphenyl)pyrimidin-2-yl]amino}-N-[3-(dimethylamino)propyl]-2-methoxybenzene-sulfonamide] has an IC50 (TBK1) of 10 to 100 nM and an IC50 (IKKε) of 5 to 50 nM.

For N#Cc1cc(-c2ccnc(Nc3ccc(N4CCOCC4)cc3)n2)ccc1OCCCO [Example 210, 2-(3-Hydroxypropoxy)-5-(2-{[4-(morpholin-4-yl)phenyl]amino}pyrimidin-4-yl)benzonitrile], the IC50 (TBK1) was under 10 nM and the IC50 (IKKε) was under 5 nM.

In the case of COc1cc(NC(=O)NC[C@H](C)O)cc(Nc2nccc(-c3ccc(OC)c(C#N)c3)n2)c1 [compound 359, 1-(3-{[4-(3-Cyano-4-methoxyphenyl)pyrimidin-2-yl]amino}-5-methoxyphenyl)-3-[(2S)-2-hydroxypropyl]urea], the IC50 (TBK1) is reported as 10 to 100 nM and the IC50 (IKKε) is reported as 5 to 50 nM.

With CC(C)C(=O)Nc1ccc(-c2ccnc(Nc3cccc(OCCN4CCOCC4)c3)n2)cc1C#N [compound 432, N-{2-cyano-4-[2-({3-[2-(morpholin-4-yl)ethoxy]phenyl}amino)pyrimidin-4-yl]phenyl}-2-methylpropanamide] the IC50 (TBK1) was 10 to 100 nM and the IC50 (IKKε) was 5 to 50 nM.

Work on CNS(=O)(=O)Cc1ccc(Nc2nccc(-c3ccc(OCC(C)C)c(C#N)c3)n2)cc1 [compound 606, 1-[4-({4-[3-Cyano-4-(2-methylpropoxy)phenyl]pyrimidin-2-yl}amino)phenyl]-N-methylmethane-sulfonamide] yielded an IC50 (TBK1) of under 10 nM and an IC50 (IKKε) of under 5 nM.

Work on COc1ccc(-c2ccnc(Nc3ccc(OC4CCN(C)CC4)cc3)n2)cc1C#N [Example 288, 2-Methoxy-5-[2-({4-[(1-methylpiperidin-4-yl)oxy]phenyl}amino)pyrimidin-4-yl]benzonitrile] yielded an IC50 (TBK1) of under 10 nM and an IC50 (IKKε) of 5 to 50 nM.

For CC(C)(O)COc1ccc(-c2ccnc(Nc3ccc(N4CCOCC4)cc3)n2)cc1C#N [Example 231, 2-(2-Hydroxy-2-methylpropoxy)-5-(2-{[4-(morpholin-4-yl)phenyl]amino}pyrimidin-4-yl)benzonitrile], the IC50 (TBK1) was 10 to 100 nM and the IC50 (IKKε) was under 5 nM.

For COCCNCc1ccc(Nc2nccc(-c3ccc(OCC4CC4)c(C#N)c3)n2)cc1 [compound 581, 2-(Cyclopropylmethoxy)-5-{2-[(4-{[(2-methoxyethyl)amino]methyl}phenyl)amino]pyrimidin-4-yl}benzonitrile], the IC50 (TBK1) was under 10 nM and the IC50 (IKKε) was under 5 nM.

In the case of COc1ccc(-c2ccnc(Nc3ccc(N4CCNC(=O)C4)c(OC)c3)n2)cc1C#N [compound 370, 2-Methoxy-5-(2-{[3-methoxy-4-(3-oxopiperazin-1-yl)phenyl]amino}pyrimidin-4-yl)benzonitrile], the IC50 (TBK1) is reported as under 10 nM and the IC50 (IKKε) is reported as under 5 nM.

Work on N#Cc1cccc(-c2ccnc(Nc3ccc(N)cc3)n2)c1 [Example 55, 3-{2-[(4-Aminophenyl)amino]pyrimidin-4-yl}benzonitrile] yielded an IC50 (TBK1) of 100 to 500 nM and an IC50 (IKKε) of 50 to 500 nM.

For N#Cc1cccc(-c2ccnc(Nc3cccc(S(N)(=O)=O)c3)n2)c1 [compound 373], the IC50 (TBK1) was 10 to 100 nM and the IC50 (IKKε) was under 5 nM.

In the case of COc1cc(Nc2nccc(-c3ccc(OC4CCOCC4)c(C#N)c3)n2)ccc1C(=O)N1CC2CC1CN2 (centres unmarked) [compound 496, 5-(2-{[4-(2,5-diazabicyclo[2.2.1]hept-2-ylcarbonyl)-3-methoxyphenyl]amino}pyrimidin-4-yl)-2-(tetrahydro-2H-pyran-4-yloxy)benzonitrile], the IC50 (TBK1) is reported as under 10 nM and the IC50 (IKKε) is reported as under 5 nM.

For N#Cc1cc(-c2ccnc(Nc3ccc(N4CCOCC4)cc3)n2)ccc1NS(=O)(=O)CC(F)(F)F [Example 243, N-[2-cyano-4-(2-{[4-(morpholin-4-yl)phenyl]amino}pyrimidin-4-yl)phenyl]-2,2,2-trifluoroethane-sulfonamide], the IC50 (TBK1) was 10 to 100 nM and the IC50 (IKKε) was 5 to 50 nM.

N#Cc1cc(-c2ccnc(Nc3ccc(N4CCOCC4)cc3)n2)ccc1OC1CCN(CCO)CC1 [Example 49, 2-{[1-(2-Hydroxyethyl)piperidin-4-yl]oxy}-5-(2-{[4-(morpholin-4-yl)phenyl]amino}pyrimidin-4-yl)benzonitrile] gave an IC50 (TBK1) of under 10 nM and an IC50 (IKKε) of 5 to 50 nM.

For COc1cc(Nc2nccc(-c3ccc(O)c(C#N)c3)n2)ccc1N1CCNC(=O)C1 [compound 326, 2-Hydroxy-5-(2-{[3-methoxy-4-(3-oxopiperazin-1-yl)phenyl]amino}pyrimidin-4-yl)benzonitrile], the IC50 (TBK1) was under 10 nM and the IC50 (IKKε) was under 5 nM.

In the case of COc1cc(Nc2nccc(-c3ccc(OC4CCN(C(=O)[C@H](C)O)CC4)c(C#N)c3)n2)ccc1C(=O)NCCN(C)C [Example 287, 4-({4-[3-cyano-4-({1-[(2S)-2-hydroxypropanoyl]piperidin-4-yl}oxy)phenyl]pyrimidin-2-yl}amino)-N-[2-(dimethylamino)ethyl]-2-methoxybenzamide], the IC50 (TBK1) is reported as under 10 nM and the IC50 (IKKε) is reported as under 5 nM.

Work on N#Cc1cc(-c2ccnc(Nc3ccc(N4CCOCC4)c(C4CC4)c3)n2)ccc1OC1CCOCC1 [compound 329, 5-(2-{[3-cyclopropyl-4-(morpholin-4-yl)phenyl]amino}pyrimidin-4-yl)-2-(tetrahydro-2H-pyran-4-yloxy)benzonitrile] yielded an IC50 (TBK1) of under 10 nM and an IC50 (IKKε) of under 5 nM.

Compound COc1ccc(-c2ccnc(Nc3ccc(N4CCS(=O)(=O)CC4)cc3)n2)cc1C#N [compound 313] has an IC50 (TBK1) of 10 to 100 nM and an IC50 (IKKε) of 5 to 50 nM.

CS(=O)(=O)N1CCC(COc2ccc(-c3ccnc(Nc4ccc(N5CCOCC5)cc4)n3)cc2C#N)CC1 [Example 76, 2-{[1-(methylsulfonyl)piperidin-4-yl]methoxy}-5-(2-{[4-(morpholin-4-yl)phenyl]amino}pyrimidin-4-yl)benzonitrile] gave an IC50 (TBK1) of under 10 nM and an IC50 (IKKε) of under 5 nM.

Work on N#Cc1cc(-c2ccnc(Nc3ccc(N4CCOCC4)cc3)n2)ccc1OCC1CCNC1 (centres unmarked) [compound 456, 5-(2-{[4-(morpholin-4-yl)phenyl]amino}pyrimidin-4-yl)-2-(pyrrolidin-3-ylmethoxy) benzonitrile] yielded an IC50 (TBK1) of under 10 nM and an IC50 (IKKε) of 5 to 50 nM.

For COc1ccc(-c2ccnc(Nc3ccc(N4CCC(N5CCN(C)CC5)CC4)c(OC)c3)n2)cc1C#N [Example 65, 2-Methoxy-5-[2-({3-methoxy-4-[4-(4-methylpiperazin-1-yl)piperidin-1-yl]phenyl}amino)pyrimidin-4-yl]benzonitrile], the IC50 (TBK1) was under 10 nM and the IC50 (IKKε) was 5 to 50 nM.

N#Cc1cc(-c2ccnc(Nc3ccc(NC(=O)N4CCOCC4)cc3)n2)ccc1OC1CCOCC1 [Example 13, N-[4-({4-[3-cyano-4-(tetrahydro-2H-pyran-4-yloxy)phenyl]pyrimidin-2-yl}amino)phenyl] morpholin-4-carboxamide] was tested, and the IC50 (TBK1) was under 10 nM and the IC50 (IKKε) was 5 to 50 nM.
